We go through one compound from article PMC5218480 (PLoS ONE, 2017).

The assay has as its system MV-4-11 cells. Briefly: Gene expression microarray analysis (Affymetrix PrimeView) and GSEA. It is filed as cell-based, human. Also noted: RFU PODN (11730768_x_at) / Fold change /veh PODN (11730768_x_at) / RFU LINC00158 (11744669_a_at) / Fold change /veh LINC00158 (11744669_a_at) / RFU DUSP10 (11751237_a_at) / Fold change /veh DUSP10 (11751237_a_at) / RFU ID3 (11757404_x_at) / Fold change /veh ID3 (11757404_x_at) / RFU PLEKHG5 (11737974_s_at) / Fold change /veh PLEKHG5 (11737974_s_at) / RFU LRRC4B (11730491_at) / Fold change /veh LRRC4B (11730491_at) / RFU GIMAP4 (11747438_a_at) / Fold change /veh GIMAP4 (11747438_a_at) / RFU KRT8 (11758183_x_at) / Fold change /veh KRT8 (11758183_x_at) / RFU CNN1 (11734310_a_at) / Fold change /veh CNN1 (11734310_a_at) / RFU VPS37D (11726825_at) / Fold change /veh VPS37D (11726825_at) / RFU C10orf10 (11716522_x_at) / Fold change /veh C10orf10 (11716522_x_at) / RFU KIR2DL2 /// KIR2DL4 /// KIR2DL5A /// KIR2DL5B /// KIR2DS1 /// KIR2DS2 /// KIR2DS3 /// KIR2DS4 /// KIR3DL3 /// KIR3DL3 /// KIR3DS1 (11738374_at) / Fold change /veh KIR2DL2 /// KIR2DL4 /// KIR2DL5A /// KIR2DL5B /// KIR2DS1 /// KIR2DS2 /// KIR2DS3 /// KIR2DS4 /// KIR3DL3 /// KIR3DL3 /// KIR3DS1 (11738374_at) / RFU C1QL1 (11718748_at) / Fold change /veh C1QL1 (11718748_at) / RFU TMPRSS4 (11747572_a_at) / Fold change /veh TMPRSS4 (11747572_a_at) / RFU HAMP (11756126_x_at) / Fold change /veh HAMP (11756126_x_at) / RFU RNFT2 (11725882_a_at) / Fold change /veh RNFT2 (11725882_a_at) / RFU NR4A2 (11747474_a_at) / Fold change /veh NR4A2 (11747474_a_at) / RFU ABCC12 (11746883_a_at) / Fold change /veh ABCC12 (11746883_a_at) / RFU TMEM136 (11760407_x_at) / Fold change /veh TMEM136 (11760407_x_at) / RFU CLDN22 /// WWC2 (11732394_at) / Fold change /veh CLDN22 /// WWC2 (11732394_at) / RFU HLA-DPB1 (11760878_x_at) / Fold change /veh HLA-DPB1 (11760878_x_at) / RFU SPINT1 (11716480_a_at) / Fold change /veh SPINT1 (11716480_a_at) / RFU GAP43 (11754022_s_at) / Fold change /veh GAP43 (11754022_s_at) / RFU A4GNT (11735810_at) / Fold change /veh A4GNT (11735810_at) / RFU PRB3 (11715151_x_at) / Fold change /veh PRB3 (11715151_x_at) / RFU TUBB4B (11761932_at) / Fold change /veh TUBB4B (11761932_at) / RFU CAPN14 (11732068_a_at) / Fold change /veh CAPN14 (11732068_a_at) / RFU TMCC2 (11721928_a_at) / Fold change /veh TMCC2 (11721928_a_at) / RFU IRGQ (11745062_a_at) / Fold change /veh IRGQ (11745062_a_at) / RFU FAM174B (11720279_a_at) / Fold change /veh FAM174B (11720279_a_at) / RFU TMPRSS4 (11748680_a_at) / Fold change /veh TMPRSS4 (11748680_a_at) / RFU FAM212B (11763350_a_at) / Fold change /veh FAM212B (11763350_a_at) / RFU PLEKHG5 (11743358_a_at) / Fold change /veh PLEKHG5 (11743358_a_at) / RFU ZSCAN30 (11745921_a_at) / Fold change /veh ZSCAN30 (11745921_a_at) / RFU CMKLR1 (11741424_a_at) / Fold change /veh CMKLR1 (11741424_a_at) / RFU LOC101060620 /// MAPK8IP1 (11723275_at) / Fold change /veh LOC101060620 /// MAPK8IP1 (11723275_at) / RFU SPTSSB (11747773_x_at) / Fold change /veh SPTSSB (11747773_x_at) / RFU PRSS12 (11739890_at) / Fold change /veh PRSS12 (11739890_at) / RFU BIN1 (11741810_x_at) / Fold change /veh BIN1 (11741810_x_at) / RFU WNT11 (11732464_a_at) / Fold change /veh WNT11 (11732464_a_at) / RFU C10orf10 (11716521_a_at) / Fold change /veh C10orf10 (11716521_a_at) / RFU C5orf56 (11738089_at) / Fold change /veh C5orf56 (11738089_at) / RFU CYB561 (11721691_x_at) / Fold change /veh CYB561 (11721691_x_at) / RFU ANKRD19P (11752326_a_at) / Fold change /veh ANKRD19P (11752326_a_at) / RFU OR2T12 /// OR2T33 /// OR2T8 (11738714_s_at) / Fold change /veh OR2T12 /// OR2T33 /// OR2T8 (11738714_s_at) / RFU VCAN (11748164_a_at) / Fold change /veh VCAN (11748164_a_at) / RFU JSRP1 (11732532_at) / Fold change /veh JSRP1 (11732532_at) / RFU KRTAP10-11 (11738290_x_at) / Fold change /veh KRTAP10-11 (11738290_x_at) / RFU MYO3A (11730013_a_at) / Fold change /veh MYO3A (11730013_a_at) / RFU EBF3 (11725865_a_at) / Fold change /veh EBF3 (11725865_a_at) / RFU CAMK2N1 (11719241_x_at) / Fold change /veh CAMK2N1 (11719241_x_at) / RFU C5orf56 (11738088_a_at) / Fold change /veh C5orf56 (11738088_a_at) / RFU OLFML3 (11715873_a_at) / Fold change /veh OLFML3 (11715873_a_at) / RFU LOC100653217 /// NTM (11731650_a_at) / Fold change /veh LOC100653217 /// NTM (11731650_a_at) / RFU MAPK11 (11762145_a_at) / Fold change /veh MAPK11 (11762145_a_at) / RFU FIZ1 (11724087_x_at) / Fold change /veh FIZ1 (11724087_x_at) / RFU OASL (11726364_x_at) / Fold change /veh OASL (11726364_x_at) / RFU SOX15 (11748057_x_at) / Fold change /veh SOX15 (11748057_x_at) / RFU CD79A (11719716_a_at) / Fold change /veh CD79A (11719716_a_at) / RFU HIST1H1D (11736915_at) / Fold change /veh HIST1H1D (11736915_at) / RFU CASKIN2 (11723855_a_at) / Fold change /veh CASKIN2 (11723855_a_at) / RFU LOC730098 (11760151_x_at) / Fold change /veh LOC730098 (11760151_x_at) / RFU OR4N2 (11742367_at) / Fold change /veh OR4N2 (11742367_at) / RFU PRRT2 (11749266_a_at) / Fold change /veh PRRT2 (11749266_a_at) / RFU SNX32 (11753110_a_at) / Fold change /veh SNX32 (11753110_a_at) / RFU CDHR5 (11726645_a_at) / Fold change /veh CDHR5 (11726645_a_at) / RFU RCAN1 (11760418_a_at) / Fold change /veh RCAN1 (11760418_a_at) / RFU FAM167A (11723789_a_at) / Fold change /veh FAM167A (11723789_a_at) / RFU FAM26E (11764081_at) / Fold change /veh FAM26E (11764081_at) / RFU ISYNA1 (11749810_s_at) / Fold change /veh ISYNA1 (11749810_s_at) / RFU ACY1 (11761880_at) / Fold change /veh ACY1 (11761880_at) / RFU 11764098_at / Fold change /veh 11764098_at / RFU SAMD14 (11745864_x_at) / Fold change /veh SAMD14 (11745864_x_at) / RFU NPB (11741838_a_at) / Fold change /veh NPB (11741838_a_at) / RFU TMPRSS6 (11731388_a_at) / Fold change /veh TMPRSS6 (11731388_a_at) / RFU KRTAP10-2 (11738614_at) / Fold change /veh KRTAP10-2 (11738614_at) / RFU ARHGAP8 /// PRR5-ARHGAP8 (11727945_x_at) / Fold change /veh ARHGAP8 /// PRR5-ARHGAP8 (11727945_x_at) / RFU KRTAP5-7 /// NADSYN1 (11734609_at) / Fold change /veh KRTAP5-7 /// NADSYN1 (11734609_at) / RFU RASL12 (11751679_a_at) / Fold change /veh RASL12 (11751679_a_at) / RFU CDKN2B (11736163_a_at) / Fold change /veh CDKN2B (11736163_a_at) / RFU PRF1 (11729649_at) / Fold change /veh PRF1 (11729649_at) / RFU, ZNF638 /// ZNF638-IT1 / Fold change vs veh, ZNF638 /// ZNF638-IT1 / RFU, PANK3 / Fold change vs veh, PANK3 / RFU, SH3YL1 / Fold change vs veh, SH3YL1 / RFU, ZEB2 / Fold change vs veh, ZEB2 / RFU, NRIP1 / Fold change vs veh, NRIP1 / RFU, PTTG1IP / Fold change vs veh, PTTG1IP / RFU, CAPN2 / Fold change vs veh, CAPN2 / RFU, MED14 / Fold change vs veh, MED14 / RFU, SNORA58 / Fold change vs veh, SNORA58 / RFU, C1orf63 / Fold change vs veh, C1orf63 / RFU, LRRFIP1 / Fold change vs veh, LRRFIP1 / RFU, NDUFAF7 / Fold change vs veh, NDUFAF7 / RFU, SLC12A2 / Fold change vs veh, SLC12A2 / RFU, IBTK / Fold change vs veh, IBTK / RFU, ESF1 / Fold change vs veh, ESF1 / Fold change vs veh, TMEM50B / RFU, TAOK1 / Fold change vs veh, TAOK1 / RFU, ACBD3 / Fold change vs veh, ACBD3 / RFU, TMA16 / Fold change vs veh, TMA16 / RFU, RWDD3 / Fold change vs veh, RWDD3 / RFU, BCAT1 / Fold change vs veh, BCAT1 / RFU, EDEM3 / Fold change vs veh, EDEM3 / RFU, TMEM33 / Fold change vs veh, TMEM33 / RFU, WDR75 / Fold change vs veh, WDR75 / RFU, AHCTF1 / Fold change vs veh, AHCTF1 / RFU, TFRC / Fold change vs veh, TFRC / RFU, ZDHHC17 / Fold change vs veh, ZDHHC17 / RFU, NOM1 / Fold change vs veh, NOM1 / RFU, ARL8B / Fold change vs veh, ARL8B / RFU, ZBTB11 / Fold change vs veh, ZBTB11 / RFU, TAMM41 / Fold change vs veh, TAMM41 / RFU, KIAA1704 /// LOC100996395 / Fold change vs veh, KIAA1704 /// LOC100996395 / RFU, ING1 / Fold change vs veh, ING1 / RFU, TRMT61B / Fold change vs veh, TRMT61B / RFU, FUBP3 / Fold change vs veh, FUBP3 / RFU, TP53 / Fold change vs veh, TP53 / RFU, TNKS2 / Fold change vs veh, TNKS2 / RFU, ZFP14 / Fold change vs veh, ZFP14 / RFU, ACTR2 / Fold change vs veh, ACTR2 / RFU, PPP3R1 / Fold change vs veh, PPP3R1 / RFU, PIK3R1 / Fold change vs veh, PIK3R1 / RFU, HNRNPA1 / Fold change vs veh, HNRNPA1 / RFU, RNF170 / Fold change vs veh, RNF170 / RFU, ZNF28 / Fold change vs veh, ZNF28 / RFU, RNGTT / Fold change vs veh, RNGTT / RFU, OGT / Fold change vs veh, OGT / RFU, BRD1 / Fold change vs veh, BRD1 / RFU, MARS / Fold change vs veh, MARS / RFU, ZNF655 / Fold change vs veh, ZNF655 / RFU, FAHD1 / Fold change vs veh, FAHD1 / RFU, BDP1 / Fold change vs veh, BDP1 / RFU, LRRCC1 / Fold change vs veh, LRRCC1 / RFU, ARID1A / Fold change vs veh, ARID1A / RFU, ZNF146 / Fold change vs veh, ZNF146 / RFU, ZNF330 / Fold change vs veh, ZNF330 / RFU, GPN3 / Fold change vs veh, GPN3 / RFU, C9orf123 / Fold change vs veh, C9orf123 / RFU, N4BP2L2 / Fold change vs veh, N4BP2L2 / RFU, ARFIP1 / Fold change vs veh, ARFIP1 / RFU, FAM179B / Fold change vs veh, FAM179B / RFU, BCL10 / Fold change vs veh, BCL10 / RFU, UHRF1BP1L / Fold change vs veh, UHRF1BP1L / RFU, BET1 / Fold change vs veh, BET1 / RFU, CNOT2 / Fold change vs veh, CNOT2 / RFU, ZNF268 / Fold change vs veh, ZNF268 / Fold change vs veh, ZNF507 / RFU, DGCR2 / Fold change vs veh, DGCR2 / RFU, WDSUB1 / Fold change vs veh, WDSUB1 / Fold change vs veh, HSP90B1 /// MIR3652 / RFU, ADSS / Fold change vs veh, ADSS / RFU, GK / Fold change vs veh, GK / RFU, ZNF148 / Fold change vs veh, ZNF148 / RFU, TAF9 / Fold change vs veh, TAF9 / RFU, SLC1A5 / Fold change vs veh, SLC1A5 / RFU, SLMO2 / Fold change vs veh, SLMO2 / RFU, ABCC4 / Fold change vs veh, ABCC4 / RFU, LOC101060439 /// RAP1B / Fold change vs veh, LOC101060439 /// RAP1B / RFU, RFX7 / Fold change vs veh, RFX7 / RFU, GTPBP10 / Fold change vs veh, GTPBP10 / RFU, CNEP1R1 / Fold change vs veh, CNEP1R1 / RFU, BIVM-ERCC5 /// ERCC5 / Fold change vs veh, BIVM-ERCC5 /// ERCC5 / RFU, ILF3 / Fold change vs veh, ILF3 / RFU 11762660_at / Fold change /veh 11762660_at / RFU VCAN (11757783_s_at) / Fold change /veh VCAN (11757783_s_at) / RFU DDX43 (11728927_at) / Fold change /veh DDX43 (11728927_at) / RFU KRT8 (11758188_x_at) / Fold change /veh KRT8 (11758188_x_at) / RFU NKD1 (11759106_at) / Fold change /veh NKD1 (11759106_at) / RFU SRD5A1 (11742802_a_at) / Fold change /veh SRD5A1 (11742802_a_at) / RFU TPSAB1 /// TPSB2 (11721975_s_at) / Fold change /veh TPSAB1 /// TPSB2 (11721975_s_at) / RFU GSTM3 (11746129_a_at) / Fold change /veh GSTM3 (11746129_a_at) / RFU IL23R (11737362_x_at) / Fold change /veh IL23R (11737362_x_at) / RFU TMEM51 (11727254_a_at) / Fold change /veh TMEM51 (11727254_a_at) / RFU PIWIL2 (11732686_x_at) / Fold change /veh PIWIL2 (11732686_x_at) / RFU ORM1 (11744905_x_at) / Fold change /veh ORM1 (11744905_x_at) / RFU CCDC152 (11743942_at) / Fold change /veh CCDC152 (11743942_at) / RFU ECM1 (11717891_a_at) / Fold change /veh ECM1 (11717891_a_at) / RFU IL23R (11748794_a_at) / Fold change /veh IL23R (11748794_a_at) / RFU TNFAIP8L3 (11732012_x_at) / Fold change /veh TNFAIP8L3 (11732012_x_at) / RFU MBOAT4 (11741988_at) / Fold change /veh MBOAT4 (11741988_at) / RFU 11764193_at / Fold change /veh 11764193_at / RFU TMEM53 (11763286_at) / Fold change /veh TMEM53 (11763286_at) / RFU MAGEB2 (11727129_at) / Fold change /veh MAGEB2 (11727129_at) / RFU TMEM200A (11744735_a_at) / Fold change /veh TMEM200A (11744735_a_at) / RFU CCDC152 (11751479_a_at) / Fold change /veh CCDC152 (11751479_a_at) / RFU FAM211A (11726209_a_at) / Fold change /veh FAM211A (11726209_a_at) / RFU RGS16 (11746705_a_at) / Fold change /veh RGS16 (11746705_a_at) / RFU VCAN (11755009_s_at) / Fold change /veh VCAN (11755009_s_at) / RFU RHOB (11743442_s_at) / Fold change /veh RHOB (11743442_s_at) / RFU RGS16 (11720943_a_at) / Fold change /veh RGS16 (11720943_a_at) / RFU RGS16 (11720944_at) / Fold change /veh RGS16 (11720944_at) / RFU, VPS4B / Fold change vs veh, VPS4B / RFU, CREB1 / Fold change vs veh, CREB1 / RFU, DNAJC13 / Fold change vs veh, DNAJC13 / RFU, GNAQ / Fold change vs veh, GNAQ / RFU, CDK5R1 / Fold change vs veh, CDK5R1 / RFU, ZRANB3 / Fold change vs veh, ZRANB3 / RFU, CUL4A / Fold change vs veh, CUL4A / RFU, CCNY / Fold change vs veh, CCNY / RFU, UFL1 / Fold change vs veh, UFL1 / RFU, COG3 / Fold change vs veh, COG3 / RFU, DIAPH2 / Fold change vs veh, DIAPH2 / RFU, SKA2 / Fold change vs veh, SKA2 / RFU, AFF3 / Fold change vs veh, AFF3 / RFU, LMF1 / Fold change vs veh, LMF1 / RFU, IPO11 / Fold change vs veh, IPO11 / RFU, DFFB / Fold change vs veh, DFFB / RFU, FOXP1 / Fold change vs veh, FOXP1 / RFU, CARD8 / Fold change vs veh, CARD8 / RFU, STRN3 / Fold change vs veh, STRN3 / RFU, ADK / Fold change vs veh, ADK / RFU, RASSF2 / Fold change vs veh, RASSF2 / RFU, WIPF1 / Fold change vs veh, WIPF1 / RFU, LARP1B / Fold change vs veh, LARP1B / RFU, RASA1 / Fold change vs veh, RASA1 / RFU, RB1 / Fold change vs veh, RB1 / RFU, PPFIA1 / Fold change vs veh, PPFIA1 / RFU, MAT2A / Fold change vs veh, MAT2A / RFU, CCT5 / Fold change vs veh, CCT5 / RFU, WDR92 / Fold change vs veh, WDR92 / RFU, CUX1 / Fold change vs veh, CUX1 / RFU, TTC7A / Fold change vs veh, TTC7A / RFU, TMEM135 / Fold change vs veh, TMEM135 / RFU, DEPTOR / Fold change vs veh, DEPTOR / RFU, CPM / Fold change vs veh, CPM / RFU, DNAJB6 / Fold change vs veh, DNAJB6 / RFU, CACNA2D3 / Fold change vs veh, CACNA2D3 / RFU, DTX4 / Fold change vs veh, DTX4 / RFU, TFCP2 / Fold change vs veh, TFCP2 / RFU, GMCL1 /// GMCL1P1 / Fold change vs veh, GMCL1 /// GMCL1P1 / RFU, AEBP2 / Fold change vs veh, AEBP2 / RFU, SNHG1 /// SNORD22 /// SNORD25 /// SNORD26 /// SNORD27 /// SNORD28 /// SNORD29 /// SNORD31 / Fold change vs veh, SNHG1 /// SNORD22 /// SNORD25 /// SNORD26 /// SNORD27 /// SNORD28 /// SNORD29 /// SNORD31 / Fold change (Aza/veh), C12orf56 (ProbeSet 11735607_a_at) / Fold change (ACY-1035/veh), C12orf56 (ProbeSet 11735607_a_at) / Fold change (Aza/veh), FGFR1OP (ProbeSet 11751329_s_at) / Fold change (ACY-1035/veh), FGFR1OP (ProbeSet 11751329_s_at) / Fold change (Aza/veh), VPS36 (ProbeSet 11739960_a_at) / Fold change (ACY-1035/veh), VPS36 (ProbeSet 11739960_a_at) / RFU SYPL1 (11715823_x_at) / Fold change /veh SYPL1 (11715823_x_at) / RFU IGFBP7 (11715501_s_at) / Fold change /veh IGFBP7 (11715501_s_at) / RFU REEP3 (11722064_at) / Fold change /veh REEP3 (11722064_at) / RFU IGLL1 (11728026_x_at) / Fold change /veh IGLL1 (11728026_x_at): dose or concentration left out as unconfirmed. The settings on record: MV-4-11 cells, 48 hours.

As for `Nc1ncn([C@@H]2O[C@H](CO)[C@@H](O)[C@H]2O)c(=O)n1` [azacitidine], the “Fold change /veh LOC101060620 /// MAPK8IP1 (11723275_at)” value was determined as 0.98.
